Reference: ChEMBL document CHEMBL1143427, “Interactions of ceftobiprole with beta-lactamases from molecular classes A to D” (Antimicrob Agents Chemother, 2007)
≈ marks a conversion by molar mass, not a printed value.

How the values were obtained:
Format in all cases: functional
[1] = system: Pseudomonas aeruginosa; experiment: Antibacterial activity against Pseudomonas aeruginosa 7052 producing beta lactamase VIM2 by broth microdilution method
[2] = system: Serratia marcescens; experiment: Antibacterial activity against Serratia marcescens 7554 producing beta lactamase SME3 by broth microdilution method
[3] = system: Pseudomonas aeruginosa; experiment: Antibacterial activity against Pseudomonas aeruginosa HPA101-1477 producing beta lactamase IMP1 by broth microdilution method
[4] = system: Klebsiella pneumoniae; experiment: Antibacterial activity against Klebsiella pneumoniae 4238 producing beta lactamase SHV1 by broth microdilution method
[5] = system: Providencia stuartii; experiment: Antibacterial activity against Providencia stuartii 2772 producing beta lactamase AmpC by broth microdilution method
[6] = system: Pseudomonas aeruginosa; experiment: Antibacterial activity against Pseudomonas aeruginosa 4352 producing beta lactamase AmpC by broth microdilution method
[7] = system: Klebsiella oxytoca; experiment: Antibacterial activity against Klebsiella oxytoca 4076 producing beta lactamase K1 by broth microdilution method
[8] = system: Serratia marcescens; experiment: Antibacterial activity against Serratia marcescens 4104 producing beta lactamase AmpC by broth microdilution method
[9] = system: Escherichia coli; experiment: Antibacterial activity against Escherichia coli 6226 producing beta lactamase KPC2 by broth microdilution method
[10] = system: Pseudomonas aeruginosa; experiment: Antibacterial activity against Pseudomonas aeruginosa MK-1184 producing beta lactamase AmpC by broth microdilution method
[11] = system: Escherichia coli; experiment: Antibacterial activity against Escherichia coli producing beta lactamase TEM1 by broth microdilution method
[12] = system: Escherichia coli; experiment: Antibacterial activity against Escherichia coli 11732 producing beta lactamase CTX-M-15 by broth microdilution method
[13] = system: Pseudomonas aeruginosa; experiment: Antibacterial activity against Pseudomonas aeruginosa 4083 producing beta lactamase OXA10 by broth microdilution method
[14] = system: Morganella morganii; experiment: Antibacterial activity against Morganella morganii 2574 producing beta lactamase AmpC by broth microdilution method
[15] = system: Pseudomonas aeruginosa; experiment: Antibacterial activity against Pseudomonas aeruginosa 18SH producing beta lactamase AmpC by broth microdilution method
[16] = system: Klebsiella pneumoniae; experiment: Antibacterial activity against Klebsiella pneumoniae 4094 producing beta lactamase TEM26 by broth microdilution method
[17] = system: Staphylococcus aureus; experiment: Antibacterial activity against Staphylococcus aureus 4116 producing betalactamase PC1 by broth microdilution method
[18] = system: Enterobacter cloacae; experiment: Antibacterial activity against Enterobacter cloacae 4080 producing beta lactamase AmpC (P99) by broth microdilution method
[19] = system: Enterobacter cloacae; experiment: Antibacterial activity against Enterobacter cloacae 908R producing beta lactamase AmpC by broth microdilution method
[20] = system: Staphylococcus aureus; experiment: Antibacterial activity against methicillin-susceptible Staphylococcus aureus
[21] = system: Staphylococcus aureus; experiment: Antibacterial activity against methicillin-resistant Staphylococcus aureus
[22] = system: Enterobacter cloacae; experiment: Antibacterial activity against Enterobacter cloacae 4092 producing beta lactamase AmpC (E2) by broth microdilution method
[23] = system: Enterobacter cloacae; experiment: Antibacterial activity against Enterobacter cloacae 4081 producing beta lactamase AmpC (E2) by broth microdilution method

SMILES	MIC [1] [µg/mL]	MIC [2] [µg/mL]	MIC [3] [µg/mL]	MIC [4] [µg/mL]	MIC [5] [µg/mL]	MIC [6] [µg/mL]	MIC [7] [µg/mL]	MIC [8] [µg/mL]	MIC [9] [µg/mL]	MIC [10] [µg/mL]	MIC [11] [µg/mL]	MIC [12] [µg/mL]	MIC [13] [µg/mL]	MIC [14] [µg/mL]	MIC [15] [µg/mL]	MIC [16] [µg/mL]	MIC [17] [µg/mL]	MIC [18] [µg/mL]	MIC [19] [µg/mL]	MIC [22] [µg/mL]	further results
CO/N=C(\C(=O)N[C@@H]1C(=O)N2C(C(=O)[O-])=C(C[N+]3(C)CCCC3)CS[C@H]12)c1csc(N)n1	128 (≈ 266 µM)	0.25 (≈ 0.52 µM)	> 32	0.25 (≈ 0.52 µM)	0.25 (≈ 0.52 µM)	2 (≈ 4.16 µM)	2 (≈ 4.16 µM)	0.12 (≈ 0.25 µM)	16 (≈ 33.3 µM)	32 (≈ 66.6 µM)	0.12 (≈ 0.25 µM)	16 (≈ 33.3 µM)	8 (≈ 16.6 µM)	0.03 (≈ 0.0624 µM)	32 (≈ 66.6 µM)	4 (≈ 8.32 µM)	2 (≈ 4.16 µM)				
Nc1nc(/C(=N/O)C(=O)N[C@@H]2C(=O)N3C(C(=O)O)=C(/C=C4\CCN([C@@H]5CCNC5)C4=O)CS[C@H]23)ns1 [CEFTOBIPROLE]	> 128	0.25 (≈ 0.468 µM)	> 32	0.5 (≈ 0.935 µM)	0.015 (≈ 0.0281 µM)	4 (≈ 7.48 µM)	> 32	0.12 (≈ 0.224 µM)	16 (≈ 29.9 µM)	32 (≈ 59.9 µM)	0.5 (≈ 0.935 µM)	> 128	128 (≈ 239 µM)	0.03 (≈ 0.0561 µM)	16 (≈ 29.9 µM)	0.25 (≈ 0.468 µM)	0.25 (≈ 0.468 µM)	2 (≈ 3.74 µM)	4 (≈ 7.48 µM)	0.12 (≈ 0.224 µM)	MIC90 [20]: 0.5 µg/mL (≈ 0.935 µM); MIC90 [21]: 2 µg/mL (≈ 3.74 µM); MIC [23]: 1 µg/mL (≈ 1.87 µM)
CC(C)(O/N=C(\C(=O)N[C@@H]1C(=O)N2C(C(=O)[O-])=C(C[n+]3ccccc3)CS[C@H]12)c1csc(N)n1)C(=O)O [CEFTAZIDIME]	64 (≈ 117 µM)	0.5 (≈ 0.915 µM)	> 32	2 (≈ 3.66 µM)	4 (≈ 7.32 µM)	4 (≈ 7.32 µM)	0.5 (≈ 0.915 µM)	0.25 (≈ 0.457 µM)	32 (≈ 58.5 µM)	32 (≈ 58.5 µM)	0.5 (≈ 0.915 µM)	32 (≈ 58.5 µM)	2 (≈ 3.66 µM)	1 (≈ 1.83 µM)	32 (≈ 58.5 µM)	> 256	4 (≈ 7.32 µM)	64 (≈ 117 µM)	> 64	1 (≈ 1.83 µM)	MIC [23]: > 128 µg/mL
